In the assay the target is T1, human FAAH (Homo sapiens, UniProt O00519).
T1 construct: expressed in transfected cells; host or cells: H4 cells stably transfected with human FAAH (Geneticin selection); crude membrane homogenates
T1 sequence (O00519 1-579): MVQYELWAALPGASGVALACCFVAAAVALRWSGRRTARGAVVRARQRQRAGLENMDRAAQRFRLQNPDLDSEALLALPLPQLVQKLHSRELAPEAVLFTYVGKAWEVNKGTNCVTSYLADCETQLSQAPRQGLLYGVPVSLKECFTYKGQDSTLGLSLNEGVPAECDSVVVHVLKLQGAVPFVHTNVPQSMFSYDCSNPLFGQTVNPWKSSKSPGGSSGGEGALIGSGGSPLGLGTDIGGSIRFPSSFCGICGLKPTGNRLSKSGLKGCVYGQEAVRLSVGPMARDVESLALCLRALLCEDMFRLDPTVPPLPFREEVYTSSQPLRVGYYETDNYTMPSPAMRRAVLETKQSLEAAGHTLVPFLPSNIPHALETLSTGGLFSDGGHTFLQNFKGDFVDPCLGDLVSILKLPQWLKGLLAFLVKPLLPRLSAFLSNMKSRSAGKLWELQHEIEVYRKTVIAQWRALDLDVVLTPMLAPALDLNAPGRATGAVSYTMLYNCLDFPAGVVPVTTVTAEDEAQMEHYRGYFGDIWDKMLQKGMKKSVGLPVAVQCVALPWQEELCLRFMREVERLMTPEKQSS
Briefly: Determination of FAAH activity (membrane homogenates of H4-FAAH cells, [3H]-anandamide hydrolysis). Format: biochemical. The following applies: transfected human FAAH, H4-FAAH cell membranes, 10 μM anandamide, room temperature, one hour. As for the experimental part:
Homogenates of crude membranes were prepared from H4 cells that express transfected human FAAH (H4-FAAH cells). Briefly, cells were grown in DMEM supplemented with 10% FBS and Geneticin at a final concentration of 500 μg/ml (Gibco BRL, Rockville, Md.). Confluent cultures of H4-FAAH cells were rinsed twice with phosphate-buffered saline [138 mM NaCl, 4.1 mM KCl, 5.1 mM Na2PO4, 1.5 mM KH2PO4 (pH 7.5), 37° C.] and incubated for 5-10 min. at 4° C. in lysis buffer [1 mM sodium bicarbonate]. Cells were transferred from plates to polypropylene tubes (16×100 mm), homogenized and centrifuged at 32,000×g for 30 min. Pellets were resuspended by homogenization in lysis buffer and centrifuged at 32,000×g for 30 min. Pellets were resuspended in lysis buffer (15-20 μg protein/ml) then stored at −80° C. until needed. On the day of an experiment, membranes were diluted to 2.67 μg protein/ml in 125 mM Tris-Cl, pH 9.0
Activity of FAAH was measured using a modification of the method described by Omeir et al., 1995 (Life Sci 56:1999, 1995). Membrane homogenates (240 ng protein) were incubated at room temperature for one hour with 1.67 nM anandamide [ethanolamine 1-^3H] (American Radiolabeled Chemical Inc., St Louis, Mo.) and 10 μM anandamide (Sigma/RBI, St. Louis, Mo.) in the absence and presence of inhibitors. The reaction was stopped by the addition of 1 volume of a solution of methanol and dichloroethane (1:1). The mixture was shaken and then centrifuged at 1000×g for 15 min. to separate the aqueous and organic phases. An aliquot of the aqueous phase, containing [^3H]-ethanolamine was withdrawn and counted by scintillation spectroscopy. Data were expressed as the percentage of [^3H]-ethanolamine formed versus vehicle, after subtraction of the background radioactivity determined in the presence of 10 μM arachidonyl trifluoromethyl ketone (ATFMK), an inhibitor of FAAH. IC50 values were determined using a four-parameter logistic equation for dose-response curves.

The structures appear in SMILES notation.

Compound `Cc1nc(-c2ccccc2)c(-c2ccccc2)n1CCCCCCNC(=O)Oc1ccccc1` [Example 9] registered a half-maximal inhibitory concentration (IC50) of less than 10 nM.

With `CCOC(=O)NCCCCCCn1c(C)nc(-c2ccccc2)c1-c1ccccc1` [Example 45, [6-(2-Methyl-4,5-diphenyl-imidazol-1-yl)-hexyl]-carbamic acid ethyl ester], the IC50 lay within 100 to 1000 nM.

In turn, `Cc1nc(-c2ccccc2)c(-c2ccccc2)n1CCCCCCCNC(=O)Oc1ccc(C#N)cc1` [Example 27, [7-(2-Methyl-4,5-diphenyl-imidazol-1-yl)-heptyl]-carbamic acid 4-cyano-phenyl ester] showed an IC50 of less than 10 nM.

Consider `CCc1nc(-c2ccccc2)c(-c2ccccc2)n1CCCCCCNC(=O)OC(C)CC` (stereo not drawn) [Example 3], for which the IC50 fell in the range of 1000 to 10000 nM.

On to `COc1ccc(OC(=O)Nc2ccc(OCCCn3c(C)nc(-c4ccccc4)c3-c3ccccc3)cc2)cc1` [Example 56, {4-[3-(2-Methyl-4,5-diphenyl-imidazol-1-yl)-propoxy]-phenyl}-carbamic acid 4-methoxy-phenyl ester], for which the IC50 fell in the range of 100 to 1000 nM.

`CCC(CCCCCn1c(C)nc(-c2ccccc2)c1-c1ccccc1)NC(=O)Oc1ccccc1F` (stereo not drawn) [Example 72, [1-Ethyl-6-(2-methyl-4,5-diphenyl-imidazol-1-yl)-hexyl]-carbamic acid 2-fluoro-phenyl ester] came in with an IC50 of 10 to 100 nM.

The compound `Cc1nc(-c2ccccc2)c(-c2ccccc2)n1CCOc1ccc(NC(=O)Oc2ccccc2F)cc1` [Example 61, {4-[2-(2-Methyl-4,5-diphenyl-imidazol-1-yl)-ethoxy]-phenyl}-carbamic acid 2-fluoro-phenyl ester] registered an IC50 of 1000 to 10000 nM.

Turning to `CCOC(=O)Nc1ccc(OCCn2c(C)nc(-c3ccccc3)c2-c2ccccc2)cc1` [Example 70, {4-[2-(2-Methyl-4,5-diphenyl-imidazol-1-yl)-ethoxy]-phenyl}-carbamic acid ethyl ester], the IC50 is 1000 to 10000 nM.

`CCOC(=O)NCCCCCCCn1c(C)nc(-c2ccccc2)c1-c1ccccc1` [Example 19, [7-(2-Methyl-4,5-diphenyl-imidazol-1-yl)-heptyl]-carbamic acid ethyl ester] returned an IC50 of 10 to 100 nM.

`Cc1nc(-c2ccccc2)c(-c2ccccc2)n1CCOc1ccc(NC(=O)Oc2ccc(F)cc2)cc1` [Example 62, {4-[2-(2-Methyl-4,5-diphenyl-imidazol-1-yl)-ethoxy]-phenyl}-carbamic acid 4-fluoro-phenyl ester] returned an IC50 of 1000 to 10000 nM.

Regarding `COC(=O)NCCCCCCCn1c(C)nc(-c2ccccc2)c1-c1ccccc1` [Example 18, [7-(2-Methyl-4,5-diphenyl-imidazol-1-yl)-heptyl]-carbamic acid methyl ester], the concentration for half-maximal inhibition (IC50) is 100 to 1000 nM.

In turn, `Cc1nc(-c2ccccc2)c(-c2ccccc2)n1CCCCCNC(=O)Oc1ccc(Cl)cc1` [Example 35, [5-(2-Methyl-4,5-diphenyl-imidazol-1-yl)-pentyl]-carbamic acid 4-chloro-phenyl ester] registered a 50% inhibitory concentration (IC50) of 10 to 100 nM.

`COc1cccc(OC)c1OC(=O)NCCCCCn1c(C)nc(-c2ccccc2)c1-c1ccccc1` [Example 39, [5-(2-Methyl-4,5-diphenyl-imidazol-1-yl)-pentyl]-carbamic acid 2,6-dimethoxy-phenyl ester] came in with an IC50 of 1000 to 10000 nM.

The compound `Cc1nc(-c2ccccc2)c(-c2ccccc2)n1CCCCCCNC(=O)O/N=C/c1ccccc1` [Example 46, Benzaldehyde, O-[6-(2-methyl-4,5-diphenyl-1H-imidazol-1-yl)hexylaminocarbonyl]oxime] registered an IC50 of 10 to 100 nM.

Consider `Cc1nc(-c2ccccc2)c(-c2ccccc2)n1CCOc1ccc(NC(=O)Oc2ccc(Cl)cc2)cc1` [Example 53, {4-[2-(2-Methyl-4,5-diphenyl-imidazol-1-yl)-ethoxy]-phenyl}-carbamic acid 4-chloro-phenyl ester], for which the IC50 lay in the range of 1000 to 10000 nM.

In the case of `COc1ccccc1OC(=O)NCCCCCCn1c(C)nc(-c2ccccc2)c1-c1ccccc1` [Example 17, [6-(2-Methyl-4,5-diphenyl-imidazol-1-yl)-hexyl]-carbamic acid 2-methoxy-phenyl ester], the IC50 is 100 to 1000 nM.

The compound `Cc1nc(-c2ccccc2)c(-c2ccccc2)n1CCCCCCCNC(=O)Oc1ccc(Cl)cc1` [Example 24, [7-(2-Methyl-4,5-diphenyl-imidazol-1-yl)-heptyl]-carbamic acid 4-chloro-phenyl ester] yielded an IC50 of less than 10 nM.

Compound `CC(C)=NOC(=O)NCCCCCCn1c(C)nc(-c2ccccc2)c1-c1ccccc1` [Example 6, 2-Propanone,O-[6-(2-methyl-4,5-diphenyl-1H-imidazol-1-yl)hexylaminocarbonyl]oxime] came in with an IC50 of 10 to 100 nM.

`COc1ccccc1OC(=O)NCCCCCCCn1c(C)nc(-c2ccccc2)c1-c1ccccc1` [Example 29, [7-(2-Methyl-4,5-diphenyl-imidazol-1-yl)-heptyl]-carbamic acid 2-methoxy-phenyl ester] returned an IC50 of 10 to 100 nM.

In turn, `Cc1nc(-c2ccccc2)c(-c2ccccc2)n1CCCCCCNC(=O)OCc1ccccc1` [Example 5, [6-(2-Methyl-4,5-diphenyl-imidazol-1-yl)-hexyl]-carbamic acid benzyl ester] yielded an IC50 of 1000 to 10000 nM.

Regarding `Cc1nc(-c2ccccc2)c(-c2ccccc2)n1CCCOc1ccc(NC(=O)Oc2cccc(Cl)c2)cc1` [Example 59, {4-[3-(2-Methyl-4,5-diphenyl-imidazol-1-yl)-propoxy]-phenyl}-carbamic acid 3-chloro-phenyl ester], the IC50 is 100 to 1000 nM.

`Cc1nc(-c2ccccc2)c(-c2ccccc2)n1CCCOc1ccc(NC(=O)Oc2ccc(Cl)cc2)cc1` [Example 57, {4-[3-(2-Methyl-4,5-diphenyl-imidazol-1-yl)-propoxy]-phenyl}-carbamic acid 4-chloro-phenyl ester] yielded an IC50 of 100 to 1000 nM.

`CCc1nc(-c2ccccc2)c(-c2ccccc2)n1CCCCCCNC(=O)OC(C)(C)C` [Example 2, [6-(2-Ethyl-4,5-diphenyl-imidazol-1-yl)-hexyl]-carbamic acid tert-butyl ester] registered an IC50 of 1000 to 10000 nM.

The compound `CCOC(=O)NCCCCCn1c(C)nc(-c2ccccc2)c1-c1ccccc1` [Example 30, [5-(2-Methyl-4,5-diphenyl-imidazol-1-yl)-pentyl]-carbamic acid ethyl ester] came in with an IC50 of 100 to 1000 nM.

Regarding `Cc1nc(-c2ccccc2)c(-c2ccccc2)n1CCCOc1ccc(NC(=O)Oc2c(F)cccc2F)cc1` [Example 69, {4-[3-(2-Methyl-4,5-diphenyl-imidazol-1-yl)-propoxy]-phenyl}-carbamic acid 2,6-difluoro-phenyl ester], the IC50 was in the range of 1000 to 10000 nM.

As to `Cc1nc(-c2ccc(F)cc2)c(-c2ccc(F)cc2)n1CCCCCCNC(=O)Oc1c(F)cccc1F` [Example 44, {6-[4,5-Bis-(4-fluoro-phenyl)-2-methyl-imidazol-1-yl]-hexyl}-carbamic acid 2,6-difluoro-phenyl ester], the IC50 is 10 to 100 nM.

As to `Cc1ccccc1OC(=O)NCCCCCn1c(C)nc(-c2ccccc2)c1-c1ccccc1` [Example 37, [5-(2-Methyl-4,5-diphenyl-imidazol-1-yl)-pentyl]-carbamic acid o-tolyl ester], the IC50 fell in the range of 100 to 1000 nM.

The compound `COc1ccc(OC(=O)Nc2ccc(OCCn3c(C)nc(-c4ccccc4)c3-c3ccccc3)cc2)cc1` [Example 64, {4-[2-(2-Methyl-4,5-diphenyl-imidazol-1-yl)-ethoxy]-phenyl}-carbamic acid 4-methoxy-phenyl ester] gave an IC50 of 1000 to 10000 nM.

`Cc1nc(-c2ccccc2)c(-c2ccccc2)n1CCCCCCCNC(=O)Oc1ccc(F)cc1F` [Example 23, [7-(2-Methyl-4,5-diphenyl-imidazol-1-yl)-heptyl]-carbamic acid 2,4-difluoro-phenyl ester] showed an IC50 of 10 to 100 nM.

In turn, `Cc1ccccc1OC(=O)NCCCCCCn1c(C)nc(-c2ccccc2)c1-c1ccccc1` [Example 14, [6-(2-Methyl-4,5-diphenyl-imidazol-1-yl)-hexyl]-carbamic acid o-tolyl ester] gave an IC50 of less than 10 nM.
